Measured values published in ChEMBL document CHEMBL2073978, “Interactions of n-tetraalkylammonium compounds and biguanides with a human renal organic cation transporter (hOCT2)” (Pharm Res, 2002).

Tests used:
[1] = molecular target: T1, Solute carrier family 22 member 2 (Homo sapiens, UniProt O15244); type: functional, cell-based, Xenopus laevis, Oocyte
T1 sequence (O15244 whole entry): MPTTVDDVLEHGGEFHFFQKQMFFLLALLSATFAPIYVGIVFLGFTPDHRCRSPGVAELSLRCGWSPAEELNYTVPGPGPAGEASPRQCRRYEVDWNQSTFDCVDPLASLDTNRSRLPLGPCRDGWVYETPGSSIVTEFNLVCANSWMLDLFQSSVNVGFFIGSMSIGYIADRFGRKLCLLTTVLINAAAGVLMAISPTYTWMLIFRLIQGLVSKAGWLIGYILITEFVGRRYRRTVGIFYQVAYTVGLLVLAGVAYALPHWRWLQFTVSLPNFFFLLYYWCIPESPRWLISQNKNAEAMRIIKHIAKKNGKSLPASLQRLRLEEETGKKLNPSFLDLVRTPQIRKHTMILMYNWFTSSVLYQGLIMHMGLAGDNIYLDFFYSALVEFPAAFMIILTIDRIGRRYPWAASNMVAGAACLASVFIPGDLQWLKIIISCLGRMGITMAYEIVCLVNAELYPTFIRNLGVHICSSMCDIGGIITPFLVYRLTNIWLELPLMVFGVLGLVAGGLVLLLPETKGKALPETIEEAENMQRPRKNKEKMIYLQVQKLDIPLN

[2] = molecular target: T1, Solute carrier family 22 member 2; experiment: (§1) TP_TRANSPORTER: inhibition of Cimetidine uptake (Cimetidine: 1 uM) in Xenopus laevis oocytes; type: functional, cell-based, Oocyte
[3] = molecular target: T2, Solute carrier family 22 member 1 (Homo sapiens, UniProt O15245); experiment: as §1; type: functional, cell-based, Oocyte
T2 sequence (O15245 whole entry): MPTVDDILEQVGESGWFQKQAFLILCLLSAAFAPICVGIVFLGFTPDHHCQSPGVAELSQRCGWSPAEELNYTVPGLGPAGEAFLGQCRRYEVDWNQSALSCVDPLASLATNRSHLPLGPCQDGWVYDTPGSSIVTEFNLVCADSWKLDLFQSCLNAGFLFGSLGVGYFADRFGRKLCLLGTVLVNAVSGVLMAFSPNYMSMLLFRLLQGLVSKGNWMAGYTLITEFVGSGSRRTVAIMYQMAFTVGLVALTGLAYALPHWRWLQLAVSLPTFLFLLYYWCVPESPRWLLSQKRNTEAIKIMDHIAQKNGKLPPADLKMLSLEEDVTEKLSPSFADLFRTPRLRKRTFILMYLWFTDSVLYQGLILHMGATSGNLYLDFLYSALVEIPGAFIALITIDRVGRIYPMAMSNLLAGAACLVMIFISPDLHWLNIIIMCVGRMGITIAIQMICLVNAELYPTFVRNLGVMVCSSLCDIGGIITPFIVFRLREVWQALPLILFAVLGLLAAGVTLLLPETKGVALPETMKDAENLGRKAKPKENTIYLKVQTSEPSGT

With `CCC[N+](CCC)(CCC)CCC` [TETRAPROPYLAMMONIUM] the IC50 [1] was 128 µM.

In the case of `CN(C)C(=N)N=C(N)N` [METFORMIN], the IC50 [2] is reported as 1700 µM.

In the case of `CC[N+](CC)(CC)CC` [TETRYLAMMONIUM], the IC50 [1] is reported as 156 µM.

`CCCC[N+](CCCC)(CCCC)CCCC` [TETRABUTHYLAMMONIUM] gave an IC50 [1] of 120 µM.

Work on `[H]/N=C(/N)N/C(=N/[H])NCCc1ccccc1` [PHENFORMIN] yielded an IC50 [3] of 10 µM and an IC50 [2] of 65 µM.
